Experimental data: PubChem BioAssay AID328 (DTP/NCI, 2004)
Several values for one entry are separate records, joined by “and”; a condition that tells them apart may be missing. Identical values can stand only once. Toxic doses and inconclusive results are not listed.

Tested on: BDF1 mice, P388 leukemia ip, median survival T/C
Experiment: NCI In Vivo Anticancer Drug Screen. Data for tumor model P388 Leukemia (intraperitoneal) in B6D2F1 (BDF1) mice
Conditions: endpoint: median survival time, higher = longer survival
Procedure, shortened: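 Reported as T/C, where T is the survival measurement in dosed animals and C the same measurement in vehicle controls.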

[1] = dose: 50.0 mg/kg/injection, schedule: Q01DX009 (ip), vehicle: Klucel (hydroxypropylcellulose) (HPC)
[2] = dose: 6.25 mg/kg/injection, schedule: Q01DX009 (ip), vehicle: water
[3] = dose: 12.5 mg/kg/injection, schedule: Q01DX009 (ip), vehicle: water
[4] = dose: 25.0 mg/kg/injection, schedule: Q01DX009 (ip), vehicle: water
[5] = dose: 50.0 mg/kg/injection, schedule: Q04DX003 (ip), vehicle: water
[6] = dose: 100.0 mg/kg/injection, schedule: Q01DX009 (ip), vehicle: water
[7] = dose: 100.0 mg/kg/injection, schedule: Q04DX003 (ip), vehicle: water
[8] = dose: 200.0 mg/kg/injection, schedule: Q04DX003 (ip), vehicle: water
[9] = dose: 400.0 mg/kg/injection, schedule: Q04DX003 (ip), vehicle: water
[10] = dose: 50.0 mg/kg/injection, schedule: Q04DX003 (ip), vehicle: saline with Tween-80
[11] = dose: 100.0 mg/kg/injection, schedule: Q04DX003 (ip), vehicle: saline with Tween-80
[12] = dose: 200.0 mg/kg/injection, schedule: Q04DX003 (ip), vehicle: saline with Tween-80
[13] = dose: 400.0 mg/kg/injection, schedule: Q04DX003 (ip), vehicle: saline with Tween-80
[14] = dose: 25.0 mg/kg/injection, schedule: Q04DX003 (ip), vehicle: saline
[15] = dose: 50.0 mg/kg/injection, schedule: Q04DX003 (ip), vehicle: saline

`CS(=O)(=O)OCCN(CCOS(C)(=O)=O)c1cccc(Cl)c1` was tested, and the T/C (dose: 1.0 mg/kg/injection, schedule: Q04DX003 (ip), vehicle: saline with Tween-80) was 100 % of control, the T/C (dose: 2.0 mg/kg/injection, schedule: Q04DX003 (ip), vehicle: saline with Tween-80) was 100 % of control and the T/C (dose: 4.0 mg/kg/injection, schedule: Q04DX003 (ip), vehicle: saline with Tween-80) was 172 % of control. The T/C (dose: 6.25 mg/kg/injection, schedule: Q01DX009 (ip), vehicle: other) was 163 % of control, the T/C (dose: 6.25 mg/kg/injection, schedule: Q04DX003 (ip), vehicle: saline) was 110 % of control and the T/C (dose: 8.0 mg/kg/injection, schedule: Q04DX003 (ip), vehicle: saline with Tween-80) was 177 % of control. For the same compound, the T/C (dose: 12.5 mg/kg/injection, schedule: Q01DX009 (ip), vehicle: Klucel (hydroxypropylcellulose) (HPC)) was 168 % of control, the T/C (dose: 12.5 mg/kg/injection, schedule: Q01DX009 (ip), vehicle: other) was 200 % of control and the T/C (dose: 18.7 mg/kg/injection, schedule: Q01DX009 (ip), vehicle: Klucel (hydroxypropylcellulose) (HPC)) was 186 % of control. For the same compound, the T/C (dose: 22.0 mg/kg/injection, schedule: Q04DX003 (ip), vehicle: other) was 240 % of control, the T/C (dose: 25.0 mg/kg/injection, schedule: Q01DX009 (ip), vehicle: other) was 95 % of control and the T/C (dose: 50.0 mg/kg/injection, schedule: Q04DX003 (ip), vehicle: other) was 90 % of control. The T/C (dose: 75.0 mg/kg/injection, schedule: Q04DX003 (ip), vehicle: other) was 90 % of control.

`COc1c(CO)c2c(c(OC)c1OC)-c1ccc(OC)c(=O)cc1[C@@H](NC(C)=O)CC2` was tested, and the T/C (dose: 25.0 mg/kg/injection, schedule: Q01DX009 (ip), vehicle: Klucel (hydroxypropylcellulose) (HPC)) was 153 % of control and the T/C [1] was 168 % of control.

`Cc1ccc(S(=O)(=O)OCCN(CCOS(=O)(=O)c2ccc(C)cc2)c2cc(OCc3ccccc3)cc(OCc3ccccc3)c2)cc1` was tested, and the T/C (dose: 1.56 mg/kg/injection, schedule: Q01DX009 (ip), vehicle: water) was 90 % of control and 99 % of control, the T/C (dose: 3.12 mg/kg/injection, schedule: Q01DX009 (ip), vehicle: water) was 93 % of control and 100 % of control and the T/C [2] was 98 % of control and 110 % of control. The T/C [3] was 91 % of control and 100 % of control, the T/C [4] was 93 % of control and 100 % of control and the T/C [5] was 91 % of control. The T/C [6] was 88 % of control, the T/C [7] was 89 % of control and the T/C [8] was 97 % of control. The T/C [9] was 97 % of control.

In the case of `NC(=O)NC(C(=O)O)(c1ccccc1)C1CCC1` (stereo not given), the T/C [10] is reported as 99 % of control, the T/C [11] is reported as 91 % of control and the T/C [12] is reported as 95 % of control. For the same compound, the T/C [13] was 95 % of control.

For `COC(=O)c1cccc(OC)c1C(=O)OC`, the T/C (dose: 100.0 mg/kg/injection, schedule: Q04DX002 (ip), vehicle: saline with Tween-80) was 104 % of control and the T/C (dose: 200.0 mg/kg/injection, schedule: Q04DX002 (ip), vehicle: saline with Tween-80) was 102 % of control.

For `OC(c1cc(C(F)(F)F)nc2c(F)cccc12)C1CCCCN1` (stereo not given), the T/C (dose: 100.0 mg/kg/injection, schedule: Q01DX001 (ip), vehicle: saline with Tween-80) was 91 % of control, the T/C (dose: 200.0 mg/kg/injection, schedule: Q01DX001 (ip), vehicle: saline with Tween-80) was 95 % of control and the T/C (dose: 400.0 mg/kg/injection, schedule: Q01DX001 (ip), vehicle: saline with Tween-80) was 100 % of control.

For `COCC12CCC(OC)C34C5CC6(O)C(OC)CC(OC(C)=O)(C5C6OC(=O)c5ccccc5)C(C(OC)C13)C4N(C)C2` (stereo not given), the T/C (dose: 0.13 mg/kg/injection, schedule: Q01DX009 (ip), vehicle: Klucel (hydroxypropylcellulose) (HPC)) was 93 % of control, the T/C (dose: 0.25 mg/kg/injection, schedule: Q01DX009 (ip), vehicle: Klucel (hydroxypropylcellulose) (HPC)) was 88 % of control and the T/C (dose: 0.5 mg/kg/injection, schedule: Q01DX009 (ip), vehicle: Klucel (hydroxypropylcellulose) (HPC)) was 102 % of control. The T/C (dose: 1.0 mg/kg/injection, schedule: Q01DX009 (ip), vehicle: Klucel (hydroxypropylcellulose) (HPC)) was 102 % of control.

`COC(OC)c1nc(N)[nH]c(=O)c1Cc1ccc(Br)cc1` was tested, and the T/C [11] was 95 % of control, the T/C [12] was 104 % of control and the T/C [13] was 100 % of control.

For `CC(=O)N=C1CCCC1C#N` (stereo not given), the T/C (dose: 100.0 mg/kg/injection, schedule: Q01DX001 (ip), vehicle: Klucel (hydroxypropylcellulose) (HPC)) was 104 % of control, the T/C (dose: 200.0 mg/kg/injection, schedule: Q01DX001 (ip), vehicle: Klucel (hydroxypropylcellulose) (HPC)) was 100 % of control and the T/C (dose: 400.0 mg/kg/injection, schedule: Q01DX001 (ip), vehicle: Klucel (hydroxypropylcellulose) (HPC)) was 95 % of control.

With `CN(/N=N/N(C)c1ccccc1)c1ccccc1` the T/C (dose: 100.0 mg/kg/injection, schedule: Q04DX003 (ip), vehicle: saline sonified) was 110 % of control, the T/C (dose: 200.0 mg/kg/injection, schedule: Q01DX009 (ip), vehicle: saline with Tween-80) was 120 % of control and the T/C (dose: 200.0 mg/kg/injection, schedule: Q04DX003 (ip), vehicle: saline sonified) was 110 % of control. For the same compound, the T/C (dose: 400.0 mg/kg/injection, schedule: Q01DX009 (ip), vehicle: saline with Tween-80) was 110 % of control and the T/C (dose: 400.0 mg/kg/injection, schedule: Q04DX003 (ip), vehicle: saline sonified) was 100 % of control.

`OC1C2CCC(CC2)C1O` (stereo not given) was tested, and the T/C (dose: 4.5 mg/kg/injection, schedule: Q01DX009 (ip), vehicle: saline with Tween-80) was 100 % of control, the T/C (dose: 9.0 mg/kg/injection, schedule: Q01DX009 (ip), vehicle: saline with Tween-80) was 86 % of control and the T/C (dose: 9.0 mg/kg/injection, schedule: Q04DX003 (ip), vehicle: saline with Tween-80) was 90 % of control. The T/C (dose: 18.0 mg/kg/injection, schedule: Q04DX003 (ip), vehicle: saline with Tween-80) was 90 % of control.

In the case of `CC(C)(C)OC(=O)N1Cc2cc3ccccc3nc2C1`, the T/C [10] is reported as 100 % of control, the T/C [11] is reported as 118 % of control and the T/C [12] is reported as 109 % of control.

In the case of `COC(CC(C)CCCC(C)(C)O)OC` (stereo not given), the T/C [1] is reported as 110 % of control, the T/C (dose: 100.0 mg/kg/injection, schedule: Q01DX009 (ip), vehicle: Klucel (hydroxypropylcellulose) (HPC)) is reported as 110 % of control and the T/C (dose: 100.0 mg/kg/injection, schedule: Q04DX003 (ip), vehicle: Klucel (hydroxypropylcellulose) (HPC)) is reported as 100 % of control. The T/C (dose: 200.0 mg/kg/injection, schedule: Q01DX009 (ip), vehicle: Klucel (hydroxypropylcellulose) (HPC)) was 110 % of control and the T/C (dose: 200.0 mg/kg/injection, schedule: Q04DX003 (ip), vehicle: Klucel (hydroxypropylcellulose) (HPC)) was 112 % of control.

In the case of `CCN(CC)CCCOC(=O)/C=C/c1c(C)[nH]c(=O)[nH]c1=O`, the T/C [14] is reported as 104 % of control, the T/C [15] is reported as 117 % of control and the T/C (dose: 100.0 mg/kg/injection, schedule: Q04DX003 (ip), vehicle: saline) is reported as 90 % of control.

In the case of `COC1=C(O)C(C(O)CO)OC1=O` (stereo not given), the T/C [2] is reported as 94 % of control, the T/C [3] is reported as 112 % of control and the T/C [4] is reported as 110 % of control. For the same compound, the T/C (dose: 25.0 mg/kg/injection, schedule: Q04DX003 (ip), vehicle: water) was 112 % of control, the T/C (dose: 50.0 mg/kg/injection, schedule: Q01DX009 (ip), vehicle: water) was 100 % of control and the T/C [5] was 97 % of control. For the same compound, the T/C [6] was 91 % of control, the T/C [7] was 100 % of control and the T/C (dose: 200.0 mg/kg/injection, schedule: Q01DX009 (ip), vehicle: water) was 103 % of control. For the same compound, the T/C [8] was 95 % of control, the T/C (dose: 400.0 mg/kg/injection, schedule: Q01DX009 (ip), vehicle: water) was 100 % of control and the T/C [9] was 105 % of control.

In the case of `BrCCCC[P+](c1ccccc1)(c1ccccc1)c1ccccc1`, the T/C (dose: 6.25 mg/kg/injection, schedule: Q01DX010 (ip), vehicle: saline) is reported as 113 % of control and the T/C (dose: 12.5 mg/kg/injection, schedule: Q01DX010 (ip), vehicle: saline) is reported as 118 % of control.

For `N/C(=N\Cl)C(Cl)(Cl)Cl`, the T/C (dose: 12.5 mg/kg/injection, schedule: Q04DX003 (ip), vehicle: saline) was 109 % of control, the T/C (dose: 25.0 mg/kg/injection, schedule: Q01DX009 (ip), vehicle: saline) was 150 % of control and the T/C [14] was 118 % of control. For the same compound, the T/C (dose: 33.0 mg/kg/injection, schedule: Q04DX003 (ip), vehicle: saline) was 118 % of control, the T/C (dose: 37.5 mg/kg/injection, schedule: Q01DX009 (ip), vehicle: saline) was 118 % of control and the T/C [15] was 118 % of control. For the same compound, the T/C (dose: 75.0 mg/kg/injection, schedule: Q04DX003 (ip), vehicle: saline) was 118 % of control.
